Test results: patent US20170008888A1 (KYORIN PHARMACEUTICAL CO., LTD., priority 2014, published 2017)
pKd: −log10 of the molar value. Where two headings read alike, the source gives them in different places. One block for each molecule: values may come before it.

What was measured:
[1] = system: human fetal lung fibroblasts (HFL-1); assay: TGF-β-induced fibrotic response (α-SMA expression) in HFL-1; type: cell-based; details: HFL1, 2 ng/ml TGF-β1, 48 h, Western blot, read-out: Inhibition of α-SMA expression, EC50 (μM), HFL-1
Experimental: Nontransformed, human fetal lung fibroblasts (HFL-1) were obtained from ATCC (Manassas, Va.) and maintained in F12K media containing 10% (v/v) charcoal-dextran treated, heat inactivated FBS (Omega Scientific, Tarzana, Calif.). Primary lung fibroblasts isolated from a patient diagnosed with asthma were obtained from Lonza (Allendale, N.J.) and maintained in FGM-2 fibroblast growth medium (Lonza). Cells were seeded at a density to provide 50-60% confluence after an overnight incubation at 37° C. in a humidified atmosphere at 5% CO2. […] Protein content was determined using the Bio-Rad Dc Protein kit (Bio-Rad Laboratories, Hercules, Calif.), and normalized prior to adding an equal volume of 2× Laemmli sample buffer (Sigma). Proteins in the whole cell lysates were resolved via SDS-PAGE gel electrophoresis, and α-SMA was detected via Western blot analysis using a rabbit anti-human α-SMA polyclonal antibody (Abcam, Cambridge, Mass.). α-SMA signal was normalized to the signal of β-actin as detected using mouse anti-human […] antibody (Cell Signaling Technology). DyLight 680 and 800 conjugated secondary antibodies were used and the infrared signals were detected using the Odyssey Imaging System (LI-COR Biotechnology, Lincoln, Nebr.).

[2] = system: TLR4 signaling in primary human umbilical vein endothelial cells; assay: Cytokine response to TLR4 agonism (LPS) in primary HUVEC (ELISA); type: cell-based
Experimental: In this example, the following commercially available inhibitors were tested:
The results were compared with test compound 61.
Pooled primary human umbilical vein endothelial cells (HUVEC) were obtained from Lonza (Allendale, N.J.) and maintained in either complete EGM-2 defined media (Lonza) or Medium 200 supplemented with Low Serum Growth Supplement (Life Technologies, Grand Island, N.Y.). Cells at low passage (<5) were seeded at 4e5 cells/ml and allowed to adhere overnight at 37° C. in a humidified atmosphere at 5% CO2. Cells were pre-treated with test compounds for 1 h prior to TLR2 or TLR4 stimulation. To test for the effects of TLR2 agonism, the TLR2 agonist peptide Pam3CysK4 (Santa Cruz Biotechnology, Dallas, Tex.) was used at 10 μg/ml. PHC-SKKK (Enzo Life Sciences, Farmingdale, N.Y.) served as the negative control peptide. To test for the effects of TLR4 agonism, LPS from E. coli 0111:B4 (EMD Millipore, Billerica, Mass.) was used at 100 ng/ml. Cells were incubated for 22 hr, after which the supernatant was collected and analyzed for cytokine concentrations by ELISA (Life Technologies). Absorbance at 450 nm was read using the Wallac 1420 Victor^2 multilabel microplate reader (Perkin Elmer, Waltham, Mass.).

TAF1L = target: T1, TAF1L (Homo sapiens, UniProt Q8IZX4); assay: Bromodomain binding assay: TAF1L
T1 construct: made in house; host or cells: E. coli host derived from the BL21 strain (T7 phage lysate)
T1 sequence (Q8IZX4 1517-1626 limits assumed): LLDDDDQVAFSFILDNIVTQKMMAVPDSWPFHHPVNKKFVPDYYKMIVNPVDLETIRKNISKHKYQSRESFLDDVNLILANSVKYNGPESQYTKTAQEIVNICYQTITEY
Experimental: T7 phage strains displaying bromodomains were grown in parallel in 24-well blocks in an E. coli host derived from the BL21 strain. E. coli were grown to log-phase and infected with T7 phage from a frozen stock (multiplicity of infection=0.4) and incubated with shaking at 32° C. until lysis (90-150 minutes). The lysates were centrifuged (5,000×g) and filtered (0.2 μm) to remove cell debris. […] The liganded beads were blocked with excess biotin and washed with blocking buffer (SeaBlock (Pierce), 1% BSA, 0.05 Tween 20, 1 mM DTT) to remove unbound ligand and to reduce non-specific phage binding. […] Test compounds (T62 and 46) were prepared as 1000× stocks in 100% DMSO and subsequently diluted 1:10 in monoethylene glycol (MEG) to create stocks at 100× the screening concentration (resulting stock solution is 10% DMSO/90% MEG). The compounds were then diluted directly into the assays such that the final concentration of DMSO and MEG were 0.1% and 0.9%, respectively. All reactions were performed in polystyrene 96-well plates in a final volume of 0.135 ml. […] The bromodomain concentration in the eluates was measured by qPCR. Compounds were assayed for binding activity against a panel of 40 bromodomain-containing proteins.

[3] = system: collagen-induced arthritis mouse model; assay: Collagen-induced arthritis (CIA) mouse model: in-life disease score, paw thickness; type: in vivo, mouse (DBA/1J); details: for change in group average disease score - mean, Day versus Day 21 (start of treatment): 60 mg/kg PO BID from D21
[4] = system: collagen-induced arthritis mouse model; assay: Collagen-induced arthritis (CIA) mouse model: histopathology of tibiofemoral and tarsal/phalangeal joints; type: in vivo, mouse (DBA/1J)
[5] = Group 3 (n=10): 60 mg/kg PO BID D21-D42
[6] = Group 3: 60 mg/kg PO BID D21-D42

SMILES: CCOc1cc(C(=O)N2CCC(N3CCN(C)CC3)CC2)ccc1Nc1cc2c(cn1)N(C)C(=O)c1ccccc1N2C [Compound 61]
EC50 [1]: 0.75 to 2.3 µM
G-CSF ([2]; 5 μM inhibitor, +100 ng/ml LPS): 14 ± 5 pg/mL
IL-6 ([2]; 5 μM inhibitor, +100 ng/ml LPS): 113 ± 14 pg/mL
IL-8 ([2]; 5 μM inhibitor, +100 ng/ml LPS, 22 hr): 1105 ± 25 pg/mL
G-CSF ([2]; 5 μM inhibitor, No Stimulation): 0 ± 25 pg/mL
IL-6 ([2]; 5 μM inhibitor, No Stimulation): 7 ± 1 pg/mL
G-CSF response to TLR4 agonism, in words ([2]; summary of Table 23): reduced the G-CSF response
IL-6 response, in words ([2]; summary of Table 24): reduced

Kd (TAF1L; read-out: Kd (nM) TAF1L): 19000 nM
pKd (TAF1L; read-out: Kd for binding to TAF1L): < 4.70
SMILES: CCOc1cc(C(=O)N[C@H]2CC[C@H](O)CC2)ccc1Nc1cc2c(cn1)N(C)C(=O)c1ccccc1N2C [Compound T62]

SMILES: CCOc1cc(C(=O)N2CCC(N3CCCC3)CC2)ccc1Nc1cc2c(cn1)N(C)C(=O)c1ccccc1N2C [Compound 46, 3-(2-Ethoxy-4-(4-(pyrrolidin-1-yl)piperidine-1-carbonyl)phenylamino)-5,11-dimethyl-5H-benzo[e]pyrido[3,4-b][1,4]diazepin-10(11H)-one]
change in group average disease score - mean, Day versus Day 21 (start of treatment) ([3]; Day 21): 0.0
change in group average disease score - mean, Day versus Day 21 (start of treatment) ([3]; Day 24): 0.4
change in group average disease score - mean, Day versus Day 21 (start of treatment) ([3]; Day 26): 1.3
change in group average disease score - mean, Day versus Day 21 (start of treatment) ([3]; Day 28): 2.0
change in group average disease score - mean, Day versus Day 21 (start of treatment) ([3]; Day 31): 2.1
change in group average disease score - mean, Day versus Day 21 (start of treatment) ([3]; Day 33): 2.7
change in group average disease score - mean, Day versus Day 21 (start of treatment) ([3]; Day 35): 2.4
change in group average disease score - mean, Day versus Day 21 (start of treatment) ([3]; Day 37): 2.7
change in group average disease score - mean, Day versus Day 21 (start of treatment) ([3]; Day 39): 2.8
percent reduction in overall disease and total paw scores ([3]; treatment Day 21-42, Tofacitinib 15 mg/kg BID PO, doses in Table 28): about 55%
histopathology of hind-limb joints (knee, paw/tarsal), in words ([4]; Day 42, H&E): nearly twice as effective as Tofacitinib at protecting the tarsal joints
Animals with normal tarsal joints (% of total n in group) [4, 5]: 70%
Number of animals with normal tarsal joints [4, 5]: 7
Tibiofemoral joint score: cartilage erosion/ulceration [4, 6]: 12.5
Tibiofemoral joint score: inflammation [4, 6]: 15.0
Tibiofemoral joint score: periosteal proliferation/erosion [4, 6]: 3.8
Tibiofemoral joint score: synovial hyperplasia [4, 6]: 3.0
